The text below walks through data of patent US20140249139A1, “Quinazoline Derivatives” (NOVARTIS AG, priority 2011, published 2014).

The subject of experiment [1] is murine B cells. As to the kind of experiment: Murine B cell activation: CD86 expression on CD19 positive B cells after anti-IgM stimulation. In kind it is cell-based. Conditions: Balb/c mouse splenocytes, anti-IgM 30 μg/ml, 24 hours, read-out: mCD86/ IC50 CD86. Here is the method: PI3Kδ has been recognized to modulate B cell function when cells are stimulated through the B cell receptor (BCR) (Okkenhaug et al. Science 297:1031 (2002). For assessing the inhibitory property of compounds on B cell activation, the upregulation of activation markers CD86 and CD69 on murine B cells derived from mouse spleen […] is measured after stimulation with anti-IgM. CD69 is a well known activation marker for B and T cells (Sancho et al. Trends Immunol. 26:136 (2005). CD86 (also known as B7-2) is primarily expressed on antigen-presenting cells, including B cells. Resting B cells express CD86 at low levels, but upregulate it following stimulation of e.g. the BCR or IL-4 receptor. CD86 on a B cell interacts with CD28 on T cells. This interaction is required for optimal T cell activation and for the generation of an optimal IgG1 response (Carreno et al. Annu Rev Immunol. 20:29 (2002)).
Spleens from Balb/c mice were collected, splenocytes were isolated and washed twice with RPMI containing 10% foetal bovine serum (FBS), 10 mM HEPES, 100 Units/ml penicilline/streptomycine. RPMI supplemented in this way is subsequently referred to as medium. The cells were adjusted to 2.5×10^6 cells/ml in medium and 200 μl cell suspension ([…]) were added to the appropriate wells of 96 well plates.
Then the cells were stimulated by adding 50 μl anti-IgM mAb in medium (final concentration: 30 μg/ml). After incubation for 24 hours at 37° C., the cells were stained with the following antibody cocktails: anti-mouse CD86-FITC, anti-mouse CD69-PerCP-Cy5.5, anti-mouse CD19-PerCP for the assessment of B cells, and anti-mouse CD3-FITC, anti-mouse CD69-PE for the assessment of T cells (2 μl of each antibody/well). After one hour at room temperature (RT) in the dark the cells were transferred to 96 Deepwell plates. The cells were washed once with 1 ml PBS containing 2% FBS and after re-suspension in 200 μl the samples were analyzed on a FACS Calibur flow cytometer. Lymphocytes were gated in the FSC/SSC dot plot according to size and granularity and further analyzed for expression of CD19, CD3 and activation markers (CD86, CD69). Data were calculated from dot blots as percentage of cells positively stained for activation markers within the CD19+ or CD3+ population using BD CellQest Software.
For assessing the inhibitory property of compounds, compounds were first dissolved and diluted in DMSO followed by a 1:50 dilution in medium. Splenocytes from Balb/c mice were isolated, re-suspended and transfered to 96 well plates as described above (200 μl/well). The diluted compounds or solvent were added to the plates (25 μl) and incubated at 37° C. for 1 hour. Then the cultures were stimulated with 25 μl anti-IgM mAb/well (final concentration 30 μg/ml) for 24 hours at 37° C. and stained with anti-mouse CD86-FITC and anti-mouse CD19-PerCP (2 μl of each antibody/well). CD86 expression on CD19 positive B cells was quantified by flow cytometry as described above.

Experiment [2] deals with T1, PI3K alpha (Homo sapiens, UniProt P42336).
T1 construct: for the p110-a subunit (with a deletion of the first 20 amino acids) are generated; His tag (C); made in house; host or cells: baculovirus BV1075; Tn5 (Trichoplusia ni) or TiniPro insect cells
As to the kind of experiment: Enzymatic PI3K alpha isoform inhibition (lipid kinase activity, Kinase-Glo). In kind it is biochemical. Conditions: enzymatic assay. An outline of the steps: (§1)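 Reactions were started with ATP (2 μM solution) after the enzyme (10 nM solution) and phosphatidylinositol substrate (5 μg/ml solution) were added to the DMSO-dissolved compounds.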
Background: Kinase-Glo reads ATP consumption through a luciferase reaction.

The target in experiment [3] is T2, PI3K delta (Homo sapiens, UniProt O00329).
T2 construct: for the full-length p110-d subunit are generated and fused by overlapping PCR; His tag (C); made in house; host or cells: baculovirus BV1060; Tn5 (Trichoplusia ni) or TiniPro insect cells
The experiment is described as follows: Enzymatic PI3K delta isoform inhibition (lipid kinase activity, Kinase-Glo). In kind it is biochemical. Conditions: enzymatic assay. The method in brief: as §1

T1 sequence (P42336 with tags, fused parts or gaps limits assumed, species assumed): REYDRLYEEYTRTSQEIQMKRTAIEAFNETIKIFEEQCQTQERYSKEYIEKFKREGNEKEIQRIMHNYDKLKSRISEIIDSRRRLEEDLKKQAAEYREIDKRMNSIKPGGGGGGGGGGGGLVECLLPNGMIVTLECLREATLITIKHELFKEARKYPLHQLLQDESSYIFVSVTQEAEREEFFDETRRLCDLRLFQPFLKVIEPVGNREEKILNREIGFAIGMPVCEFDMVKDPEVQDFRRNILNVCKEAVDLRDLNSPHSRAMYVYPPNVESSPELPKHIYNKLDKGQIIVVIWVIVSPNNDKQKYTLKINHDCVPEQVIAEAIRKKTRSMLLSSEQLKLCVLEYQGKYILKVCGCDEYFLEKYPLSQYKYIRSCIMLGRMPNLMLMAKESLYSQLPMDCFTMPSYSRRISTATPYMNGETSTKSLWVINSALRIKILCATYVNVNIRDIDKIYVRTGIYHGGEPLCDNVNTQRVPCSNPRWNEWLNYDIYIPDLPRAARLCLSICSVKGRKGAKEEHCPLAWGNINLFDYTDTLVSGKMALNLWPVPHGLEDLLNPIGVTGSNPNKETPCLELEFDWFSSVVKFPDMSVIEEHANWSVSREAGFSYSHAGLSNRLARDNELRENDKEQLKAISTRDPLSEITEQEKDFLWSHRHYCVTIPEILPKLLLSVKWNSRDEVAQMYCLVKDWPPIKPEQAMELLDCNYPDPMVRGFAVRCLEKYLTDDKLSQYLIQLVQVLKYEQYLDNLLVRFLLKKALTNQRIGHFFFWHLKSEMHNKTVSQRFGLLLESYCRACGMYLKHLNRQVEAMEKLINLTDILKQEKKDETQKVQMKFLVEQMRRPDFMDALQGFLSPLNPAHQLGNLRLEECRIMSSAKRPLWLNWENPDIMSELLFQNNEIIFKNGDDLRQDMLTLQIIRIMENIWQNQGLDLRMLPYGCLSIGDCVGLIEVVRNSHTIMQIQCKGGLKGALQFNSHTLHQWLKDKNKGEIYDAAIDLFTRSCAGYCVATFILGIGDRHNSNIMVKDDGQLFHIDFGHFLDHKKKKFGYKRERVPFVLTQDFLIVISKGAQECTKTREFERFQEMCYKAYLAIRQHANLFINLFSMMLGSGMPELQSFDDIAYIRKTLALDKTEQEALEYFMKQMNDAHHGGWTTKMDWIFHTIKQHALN
T2 sequence (O00329 with tags, fused parts or gaps limits assumed, species assumed): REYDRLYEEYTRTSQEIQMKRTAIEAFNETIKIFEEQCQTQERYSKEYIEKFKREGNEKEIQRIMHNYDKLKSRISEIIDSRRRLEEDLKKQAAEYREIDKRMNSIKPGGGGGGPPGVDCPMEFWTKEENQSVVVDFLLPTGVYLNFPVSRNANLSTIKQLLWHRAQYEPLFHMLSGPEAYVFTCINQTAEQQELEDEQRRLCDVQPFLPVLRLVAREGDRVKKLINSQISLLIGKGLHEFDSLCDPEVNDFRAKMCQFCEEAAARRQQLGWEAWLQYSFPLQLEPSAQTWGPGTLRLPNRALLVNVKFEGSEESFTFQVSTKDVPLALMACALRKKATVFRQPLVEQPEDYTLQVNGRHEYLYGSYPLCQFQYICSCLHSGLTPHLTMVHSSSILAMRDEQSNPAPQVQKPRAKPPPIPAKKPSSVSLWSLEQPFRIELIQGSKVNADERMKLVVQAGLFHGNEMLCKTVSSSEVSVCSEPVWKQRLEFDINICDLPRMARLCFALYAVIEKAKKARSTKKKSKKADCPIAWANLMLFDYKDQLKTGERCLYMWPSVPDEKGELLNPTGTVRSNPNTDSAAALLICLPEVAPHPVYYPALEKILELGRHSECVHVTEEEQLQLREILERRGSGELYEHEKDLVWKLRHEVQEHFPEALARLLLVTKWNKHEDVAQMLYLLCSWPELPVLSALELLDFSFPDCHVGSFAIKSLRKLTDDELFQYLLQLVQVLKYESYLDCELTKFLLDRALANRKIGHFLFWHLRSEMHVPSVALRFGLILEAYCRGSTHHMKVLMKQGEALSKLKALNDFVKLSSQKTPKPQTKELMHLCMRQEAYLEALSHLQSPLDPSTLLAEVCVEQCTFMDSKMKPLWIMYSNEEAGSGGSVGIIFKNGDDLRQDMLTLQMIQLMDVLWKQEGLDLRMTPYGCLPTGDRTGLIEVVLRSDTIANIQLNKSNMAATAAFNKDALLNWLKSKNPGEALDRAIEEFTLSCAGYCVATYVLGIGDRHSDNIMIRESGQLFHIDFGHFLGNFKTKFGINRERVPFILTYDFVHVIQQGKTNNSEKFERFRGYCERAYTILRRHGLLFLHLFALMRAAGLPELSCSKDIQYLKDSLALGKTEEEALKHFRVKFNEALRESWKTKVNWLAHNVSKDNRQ

`COc1ccc(-c2ccc3ncnc(-c4cccc(C(=O)N5CCN(C(C)=O)CC5)c4)c3c2)cn1` [Example 12]: the IC50 in experiment [1] amounted to 107 nM.

Consider `COc1ccc(-c2ccc3ncnc(-c4ccc(C)c(C(=O)N5CCN(C(C)C)CC5)c4)c3c2)cn1` [Example 116, (4-Isopropyl-piperazin-1-yl)-{5-[6-(6-methoxy-pyridin-3-yl)-quinazolin-4-yl]-2-methyl-phenyl}-methanone], for which the IC50 is 306 nM in experiment [2] and 14 nM in experiment [3]. In the same order, the values of `COc1ncc(-c2ccc3ncnc(-c4cccc(C(=O)N5C[C@@H]6C[C@H]5CN6C)c4)c3c2)cc1C(F)(F)F` [Example 29] are 75 nM and 3 nM. The corresponding values for `COc1ncc(-c2ccc3ncnc(-c4cccc(C(=O)N5CCN(C)C(C)(C)C5)c4)c3c2)cn1` [Example 26] are 614 nM and 17.8 nM. In the case of `CC(=O)N1CCN(C(=O)c2cccc(-c3ncnc4ccc(-c5cc(C#N)c(N)c(C(F)(F)F)c5)cc34)c2)CC1` [Example 10], the IC50 in experiment [2] is above 9100 nM; in experiment [3], 27 nM. In the same order, the values of `COc1ncc(-c2ccc3ncnc(-c4cc(C(=O)N5CCN(C(C)=O)CC5)cc(C(F)(F)F)c4)c3c2)cc1C#N` [Example 103, 5-{4-[3-(4-Acetyl-piperazine-1-carbonyl)-5-trifluoromethyl-phenyl]-quinazolin-6-yl}-2-methoxy-nicotinonitrile] are 2120 nM and 8 nM. In the same order, the values of `COc1ccc(-c2ccc3ncnc(-c4ccc(C)c(C(=O)N5CCN(C)CC5)c4)c3c2)cn1` [Example 115, {5-[6-(6-Methoxy-pyridin-3-yl)-quinazolin-4-yl]-2-methyl-phenyl}-(4-methyl-piperazin-1-yl)-methanone] are 888 nM and 42.5 nM. As for `COc1ncc(-c2ccc3ncnc(-c4cncc(C(=O)N5CCN(C)CC5)c4)c3c2)cc1F` [Example 55], the values for the IC50 in experiment [2] and in experiment [3] were 193 nM and 9.25 nM, respectively. The corresponding values for `COc1ncc(-c2ccc3ncnc(-c4cncc(C(=O)N5CCN(C(C)=O)CC5)c4)c3c2)cc1F` [Example 51] are 118 nM and 3.5 nM. Turning to `COc1ccc(-c2ccc3ncnc(-c4cccc(C(=O)N5CCNC(C)(C)C5)c4)c3c2)cn1` [Example 88, (3,3-Dimethyl-piperazin-1-yl)-{3-[6-(6-methoxy-pyridin-3-yl)-quinazolin-4-yl]-phenyl}-methanone], the IC50 in experiment [2] was determined as 100 nM; in experiment [3], 2.67 nM. Take `CC1(C)CN(C(=O)c2cncc(-c3ncnc4ccc(-c5cncc(S(C)(=O)=O)c5)cc34)c2)CCO1` [Example 64]: the IC50 came out at 583 nM in experiment [2] and 11 nM in experiment [3]. On to `COc1ncc(-c2ccc3ncnc(-c4ccc(C)c(C(=O)N5CCN(C(C)=O)CC5)c4)c3c2)cn1` [Example 102, 1-(4-{5-[6-(2-Methoxy-pyrimidin-5-yl)-quinazolin-4-yl]-2-methyl-benzoyl}-piperazin-1-yl)-ethanone], for which the IC50 worked out at 770 nM in experiment [2] and 11 nM in experiment [3]. In the same order, the values of `COc1ncc(-c2ccc3ncnc(-c4cncc(C(=O)N5CCN(C)CC5)c4)c3c2)cn1` [Example 59] are 1710 nM and 31.5 nM.

On to `CCOc1ncc(-c2ccc3ncnc(-c4cccc(C(=O)N5CCN(C(C)=O)CC5)c4)c3c2)cn1` [Example 5], for which the values for the IC50 in experiment [2] and in experiment [3] were 1320 nM and 8.5 nM, respectively. In the same order, the values of `COc1ncc(-c2ccc3ncnc(-c4cccc(C(=O)N5CCS(=O)(=O)CC5)c4)c3c2)cc1C#N` [Example 28] are 418 nM and 9 nM.

`COc1ccc(-c2ccc3ncnc(-c4cncc(C(=O)N5CCCN(C)CC5)c4)c3c2)cn1` [Example 76, {5-[6-(6-Methoxy-pyridin-3-yl)-quinazolin-4-yl]-pyridine-3-yl}-(4-methyl-[1,4]-diazepan-1-yl)-methanone]: the IC50 in experiment [2] came to 578 nM; in experiment [3], 23.5 nM. The corresponding values for `COc1ccc(-c2ccc3ncnc(-c4cncc(C(=O)N5CCNC[C@@H]5C)c4)c3c2)cc1C(F)(F)F` [Example 84, {5-[6-(4-Methoxy-3-trifluoromethyl-phenyl)-quinazolin-4-yl]-pyridin-3-yl}-((S)-2-methyl-piperazin-1-yl)-methanone] are 558 nM and 9.5 nM. On to `COc1ccc(-c2ccc3ncnc(-c4cccc(C(=O)N5CCN(C(C)=O)C(C)(C)C5)c4)c3c2)cn1` [Example 36, 1-(4-{3-[6-(6-Methoxy-pyridin-3-yl)-quinazolin-4-yl]-benzoyl}-2,2-dimethyl-piperazin-1-yl)-ethanone], for which the figures for the IC50 in experiment [2] and in experiment [3] were 217 nM and 4.5 nM, respectively.

In the case of `COc1ncc(-c2ccc3ncnc(-c4cc(F)cc(C(=O)N5CCN(C(C)=O)CC5)c4)c3c2)cn1` [Example 111, 1-(4-{3-Fluoro-5-[6-(2-methoxy-pyrimidin-5-yl)-quinazolin-4-yl]-benzoyl}-piperazin-1-yl)-ethanone], the IC50 turned out to be 1360 nM in experiment [2] and 10 nM in experiment [3]. For the compound `COc1ncc(-c2ccc3ncnc(-c4cncc(C(=O)N5CCN(C)CC5)c4)c3c2)cc1C#N` [Example 56], the results for the IC50 in experiment [2] and in experiment [3] were 542 nM and 11 nM, respectively.

For `COc1ccc(-c2ccc3ncnc(-c4cccc(C(=O)N5CCN(C)CC5)c4)c3c2)cc1C(=O)N(C)C` [Example 49, 2-Methoxy-N,N-dimethyl-5-{4-[3-(4-methyl-piperazine-1-carbonyl)-phenyl]-quinazolin-6-yl}-benzamide], the IC50 in experiment [2] worked out at 8950 nM; in experiment [3] it was 35.5 nM. In the same order, the values of `CNc1ccc(-c2ccc3ncnc(-c4cccc(C(=O)N5CCN(C)CC5)c4)c3c2)cn1` [Example 41] are 708 nM and 20.5 nM.
